From patent publication US20210251267A1, “LIGUSTROSIDIC ACID AND DERIVATIVES THEREOF FOR SWEETNESS ENHANCEMENT” (International Flavors & Fragrances Inc., priority 2018, published 2021)

Assays:
Design in all cases: species or system human
[1] = Enhancement of sucrose sweetness (flavor profile of sucrose solution with added substance); conditions: sucrose solution (4%), all levels tested
Text: (§1) The term “sweetness” or “sweetness intensity” is understood to mean the relative strength of sweet sensation as observed or experienced by an individual, e.g., a human, or a degree or amount of sweetness detected by a taster, for example on the scale from 0 (none) to 8 (very strong) used in sensory evaluations according to the procedure described in American Society for Testing Materials, Special Technical Publication-434: “Manual on Sensory Testing Methods,” ASTM International, West Conshohocken, Pa. (1996).
(§2) A sucrose solution (4%) was prepared in water. Each of ligustrosidic acid and 2′-hydroxy ligustrosidic acid solutions of different concentrations was prepared in ethanol solution in water (50%). Ligustrosidic acid and 2′-hydroxy ligustrosidic acid were evaluated at 1 and 200 ppm, respectively.
The flavor profile of the sucrose solution with added ligustrosidic acid and 2′-hydroxy ligustrosidic acid is reported in the following:
(§3) Solutions of sucrose (4%) and Luo Han Guo (120 ppm) were prepared as above (EXAMPLE II and III). In addition, solutions of fructose (3.4%), Reb A (GLG Life Tech Corporation, Canada) (90 ppm) and GSG (Glucosyl Steviol Glucosides, GLG Life Tech Corporation, Canada) (200 ppm) were also prepared in water.
The sucrose solution (4%) with the addition of various amount of Carica papaya leave extract was evaluated.

[2] = Enhancement of Luo Han Guo sweetness (flavor profile); conditions: Luo Han Guo solution (120 ppm), all levels tested
Text: as §1
A Luo Han Guo (Biovittoria Ltd., New Zealand) solution was prepared in water (120 ppm). Ligustrosidic acid and 2′-hydroxy ligustrosidic acid solutions were prepared as above (EXAMPLE II). The flavor profile of the Luo Han Guo solution with added ligustrosidic acid and 2′-hydroxy ligustrosidic acid is reported in the following:
as §3
The Luo Han Guo solution (120 ppm) with the addition of various amount of Carica papaya leave extract was evaluated.

[3] = Taste and smell of the compounds alone
Method: as §2

SMILES | Overall effect on sucrose sweetness (summary in words) [1] | Overall effect on Luo Han Guo sweetness (summary in words) [2] | Taste and smell of the compound alone ([3]; evaluated at 200 ppm) | Overall effect on sucrose sweetness (summary in words) ([1]; listed as Ligustrosidic acid) | Overall effect on sucrose sweetness (summary in words) ([1]; listed as ligustrosidic acid) | Overall effect on Luo Han Guo sweetness (summary in words) ([2]; listed as Ligustrosidic acid) | Overall effect on Luo Han Guo sweetness (summary in words) ([2]; listed as ligustrosidic acid) | Taste and smell of the compound alone ([3]; evaluated at 1 ppm)
COC(=O)C1=COC(OC2OC(CO)C(O)C(O)C2O)/C(=C\C(=O)O)C1CC(=O)OCCc1ccc(O)c(O)c1 (centres unmarked) [2′-Hydroxy Ligustrosidic Acid, 2′-hydroxy ligustrosidic acid] | strong effect in sweetness enhancement | strong effect in sweetness enhancement | devoid of taste and smell |  |  |  |  | 
COC(=O)C1=COC(OC2OC(CO)C(O)C(O)C2O)C(=CC(=O)O)C1CC(=O)OCCc1ccc(O)cc1 (stereo in doubt) [Ligustrosidic Acid, [3-(carboxymethylene)-2-(β-D-glucopyranosyloxy)-3,4-dihydro-5-(methoxycarbonyl)]-2H-pyran-4-acetic acid-α-[2-(4-hydroxyphenyl)ethyl]ester] |  |  |  | particularly strong effect | enhanced overall sweetness, body and mouthfeel | particularly strong effect | enhanced overall sweetness, body and mouthfeel | devoid of taste and smell
